# Experimental data reported in patent US20150056702A1, “METHOD AND KIT FOR CULTURING STEM CELLS” (China Medical University, priority 2013, published 2015).
# How the values were obtained:
# Type in all cases: cell-based, mouse
# SSEA1 = experiment: Immunofluorescence staining, SSEA1 in ES cells; conditions: for SSEA1 expression level: ES cells, 72 hours, control group = 100%
# Description: Nanog and SSEA1 are also marker proteins of stem cells, and their expression levels could be measured by immunofluorescence staining to further confirm whether BP can effectively maintain the self-renewal and pluripotency of stem cells.
# An experimental group medium (BP5, BP10, BP20 or BP40), a LIF-containing medium (without BP), and a control group medium (without BP) were used respectively in a 6-well culture dish which comprises a slide in each well to culture ES cells with an initial density of 1×10^4 per well for 72 hours. The medium was removed and the cells were washed with PBS. Next, PBS was removed, and then 4% paraformaldehyde was added to perform the fixation at room temperature for 10 minutes. Next, paraformaldehyde was removed, and then slides were washed with 0.1% Tween-20/1X PBS three times for 10 minutes each time. The 0.3% Tween-20/1X PBS was added and held at room temperature for 30 minutes to penetrate the cell membrane to benefit the dye entry. After the slides were washed three times with 0.1% Tween-20, 5% FBS/1×PBS was added to perform a blocking reaction at room temperature for 2 hours, and then reacting with the primary antibody [anti-Nanog (Novus) or anti-SSEA1 (Millipore)] at a dilution of 1:100 at room temperature overnight. Slides were then washed 5 times with 0.1% Tween-20, then reacting with the secondary antibody [FITC-conjugated anti-mouse IgG or TRITC-conjugated anti-rabbit IgG (Sigma-Aldrich)] at a dilution of 1:500. After washed with 0.1% Tween-20 for 10 minutes, slides were mounted with the DAPI-containing UltraCruz™ Mounting medium and observed using an inverted fluorescent microscope.
# EPO = experiment: Real-time PCR, cytokine gene EPO in ES cells; conditions: for EPO mRNA expression level: ES cells, control group = 100%
# Description: (§1) An experimental group medium (BP5, BP10, BP20 or BP40) and a control group medium (without BP) were added respectively to perform the following steps. ES cells were cultured with an initial density of 1×10^4 per well in a 6-well culture dish. The medium was removed until the cells growth to be about 70 to 80% confluence, and then 1 ml TRIzol (Invitrogen) was added into each well. The cells were incubated for 5 minutes, and then was scraped by a spatula and placed into a 1.5 ml microtube to be lysed adequately. Chloroform (0.2 ml) was added into the microtubes. The mixture was shaken up and down for 15 seconds, and then incubated at room temperature for 2 to 3 minutes. Thereafter, the mixture was centrifuged at 12000 rpm at 4° C. for 15 minutes, and the supernatant was removed into another 1.5 ml microtube and isopropanol (0.5 ml) was added into the microtube with well mixing. The mixture was incubated at room temperature for 10 minutes and then centrifuged at 12000 rpm at 4° C. for 10 minutes. The supernatant was then removed. One ml of 70% ethanol containing DEPC.H2O was used to wash the remaining sediment. The sediment was centrifuged at 7500 rpm at 4° C. for 5 minutes. The supernatant was removed. The sediment was dried by vacuum suction. The dried samples were dissolved in about 0.01 to 0.02 ml of DEPC.H2O to obtain the experimental group RNA and control group RNA. Both groups were stored at −80° C.
# (§2) The OD value of RNA samples in both groups obtained from the above Experiment I were measured at a wavelength of 260 nm (RNA: OD260=1 for a 40 μg/mL solution). Each RNA sample (2 μl) was added with RNA-free water until the volume of the sample reached 10 μl. Two μl oligo (dT) (100 μg/ml) was added into each sample, and the samples were incubated at 65° C. for 5 minutes. Then, the samples were immediately placed on ice and spun down. Next, 6.5 μl of a reaction solution [4 μl of 5× buffer+1 μl of 0.1 M DTT+1 μl of RNase out+0.5 μl of SSIII (Invitrogen)] was added into each of the samples, and the samples were incubated at 50° C. for about 30 to 60 minutes and at 75° C. for 15 minutes to obtain the experimental group cDNA and control group cDNA. Both groups were stored at −80° C.
# (§3) This experiment was used to detect the expression levels of ES cell-related genes, i.e., Oct4 and Sox2, etc. First, 4 μl of the experimental group cDNA or control group cDNA was added into each well of a 96-well micro-reaction plate, and mixed with 6 μl of a reaction solution [0.5 μl of 6 μM forward primer+0.5 μl of 6 μM reverse primer+5 μl of SYBR Green PCR Master mix (Roche)], wherein the SYBR Green PCR Master mix included the reagents needed for Q-PCR, such as dNTPs, MgCl, Taq DNA polymerase and 2×SYBR® Green I solution. […] The cycle threshold (CT) values were measured. […]
# Stat3 = experiment: Western blot assay, Stat3 protein in ES cells; conditions: for Stat3 Protein expression level: ES cells, control group = 100%
# Description: According to the known research at present, Jak2 and Stat3 proteins could be phosphorylated to form the active forms, and the Jak2-Stat3 signaling pathway will be activated when Jak2 and Stat3 were phosphorylated.
# An experimental group medium (BP5 or BP10), a LIF-containing medium (without BP), and a control group medium (without BP) were used respectively to culture ES cells with an initial density of 1×10^4 per well in a 6-well culture dish. The medium was removed until the cells growth to be about 70 to 80% confluence. The proteins were extracted to conduct the Western blot assay by using rabbit anti-Jak2 antibody (Cell Signaling Technology), mouse anti-phospho-Jak2 antibody (Cell Signaling Technology), rabbit anti-Stat3 antibody (BD) and rabbit anti-phospho-Stat3 antibody (Cell Signaling Technology), to determine whether BP would affect the protein expression levels of the genes in the Jak-Stat3 signaling pathway.
# LIF = experiment: Real-time PCR, cytokine gene LIF in ES cells; conditions: for LIF mRNA expression level: ES cells, control group = 100%
# Description: as §1, §2, §3
# Jak2 = experiment: Real-time PCR, Jak2 mRNA in ES cells; conditions: for Jak2 Gene expression level: ES cells, control group = 100%
# Description: as §1, §2, §3
# [1] = BP10 medium (about 10 μg BP/ml)
# [2] = BP-containing ES cell medium, result in words
# [3] = LIF-containing medium (LIF 4 ng/ml, without BP)
# [4] = LIF-containing medium (LIF 4 ng/ml)
compound,measurement,setting,value
"CCCC=C1OC(=O)c2ccccc21 [BP, n-butylidenephthalide]",SSEA1 expression level,SSEA1; BP5 medium (about 5 μg BP/ml),76.27%
same,SSEA1 expression level,SSEA1; [1],202.82%
same,SSEA1 expression level,SSEA1; BP20 medium (about 20 μg BP/ml),172.12%
same,SSEA1 expression level,SSEA1; BP40 medium (about 40 μg BP/ml),145.71%
same,expression level of SSEA1,"SSEA1; BP-containing ES cell medium vs control group (without BP), result in words",higher
same,EPO mRNA expression level,EPO; BP5 medium (about 5 μg BP/ml),97%
same,EPO mRNA expression level,EPO; [1],196%
same,mRNA expression level of EPO,EPO; [2],significantly up-regulated
same,Stat3 Protein expression level,Stat3; BP5 medium (about 5 μg BP/ml),139%
same,Stat3 Protein expression level,Stat3; [1],165%
same,total protein expression and phosphorylated protein expression level of Stat3,"Stat3; ES cell medium containing BP, result in words",increased significantly
same,LIF mRNA expression level,LIF; BP5 medium (about 5 μg BP/ml),113%
same,LIF mRNA expression level,LIF; [1],184%
same,mRNA expression level of LIF,LIF; [2],significantly up-regulated
same,Jak2 Gene expression level,Jak2; BP5 medium (about 5 μg BP/ml),180%
same,Jak2 Gene expression level,Jak2; [1],211%
same,mRNA expression level of Jak2,"Jak2; BP-containing ES cell medium (BP5 or BP10), result in words",significantly up-regulated
"LIF: multifunctional cell factor used to maintain pluripotency of stem cells; LIF-containing medium (4 ng/ml, without BP) as comparison",SSEA1 expression level,SSEA1; [3],242.01%
same,EPO mRNA expression level,EPO; [4],91%
same,Stat3 Protein expression level,Stat3; [3],140%
same,LIF mRNA expression level,LIF; [4],81%
same,Jak2 Gene expression level,Jak2; [3],159%
